Measurements taken from patent publication US10632125B2, “MTH1 inhibitors for treatment of inflammatory and autoimmune conditions” (THOMAS HELLEDAYS STIFTELSE FÖR MEDICINSK FORSKNING, priority 2014, dated 2020).

Each molecule was assayed against MTH1 (Homo sapiens, UniProt P36639) (assay: MTH1 enzymatic assay (malachite green, coupled to pyrophosphatase)). Settings: not given.
Assay type: biochemical

IC50, < 200 nM:
[2H]C([2H])([2H])Nc1cc(-c2cccc(Cl)c2Cl)nc(N)n1 [Example 421, 6-(2,3-dichlorophenyl)-4-N-(^2H3)methylpyrimidine-2,4-diamine]

Same assay, conditions: dGTP 100 μM, MTH1 6 nM; 96- or 384-well format; read-out: IC50

IC50, < 200 nM:
CNc1cc(-c2cccc(NC(=O)CCC(=O)N3CCCC3)c2)nc(N)n1 [Example 325, N-{3-[2-Amino-6-(methylamino)pyrimidin-4-yl]phenyl}-4-oxo-4-(pyrrolidin-1-yl)butanamide]
CNc1cc(-c2cccc(CN)c2)nc(N)n1 [Example 328, 6-[3-(Aminomethyl)phenyl]-4-N-methylpyrimidine-2,4-diamine]
Cc1nc(CCNc2cc(-c3cccc(C)c3C)nc(N)n2)n[nH]1 [Example 332, 6-(2,3-Dimethylphenyl)-4-N-[2-(5-methyl-1H-1,2,4-triazol-3-yl)ethyl]pyrimidine-2,4-diamine]
Cc1cccc(-c2cc(NCCn3ccccc3=O)nc(N)n2)c1C [Example 337, 1-(2-{[2-Amino-6-(2,3-dimethylphenyl)pyrimidin-4-yl]amino}ethyl)-1,2-dihydropyridin-2-one]
Cc1cccc(-c2cc(NCc3ccc[nH]c3=O)nc(N)n2)c1C [Example 338, 3-({[2-Amino-6-(2,3-dimethylphenyl)pyrimidin-4-yl]amino}methyl)-1,2-dihydropyridin-2-one]
Cc1cccc(-c2cc(NCCc3cccc(Cl)c3)nc(N)n2)c1C [Example 341, 4-N-[2-(3-Chlorophenyl)ethyl]-6-(2,3-dimethylphenyl)pyrimidine-2,4-diamine]
Cc1cccc(-c2cc(NCCCn3ccnc3)nc(N)n2)c1C [Example 342, 6-(2,3-Dimethylphenyl)-4-N-[3-(1H-imidazol-1-yl)propyl]pyrimidine-2,4-diamine]
Cc1cccc(-c2cc(NCCc3ccc(F)cc3)nc(N)n2)c1C [Example 344, 6-(2,3-Dimethylphenyl)-4-N-[2-(4-fluorophenyl)ethyl]pyrimidine-2,4-diamine]
Cc1cccc(-c2cc(NCCc3scnc3C)nc(N)n2)c1C [Example 352, 6-(2,3-Dimethylphenyl)-4-N-[2-(4-methyl-1,3-thiazol-5-yl)ethyl]pyrimidine-2,4-diamine]
Cc1cccc(-c2cc(NCC3CCCN(c4ccccn4)C3)nc(N)n2)c1C (stereo not drawn) [Example 355, 6-(2,3-Dimethylphenyl)-4-N-{[1-(pyridin-2-yl)piperidin-3-yl]methyl}pyrimidine-2,4-diamine]
Cc1cccc(-c2cc(NCc3cnn(-c4ccccc4)n3)nc(N)n2)c1C [Example 356, 6-(2,3-Dimethylphenyl)-4-N-[(2-phenyl-2H-1,2,3-triazol-4-yl)methyl]pyrimidine-2,4-diamine]
Cc1cccc(-c2cc(NCCCNS(=O)(=O)c3ccc(Cl)cc3)nc(N)n2)c1C [Example 357, N-(3-{[2-Amino-6-(2,3-dimethylphenyl)pyrimidin-4-yl]amino}propyl)-4-chlorobenzene-1-sulfonamide]
Cc1cccc(-c2cc(NCCCNC(=O)Nc3ccc(F)c(F)c3)nc(N)n2)c1C [Example 362, 3-(3-{[2-Amino-6-(2,3-dimethylphenyl)pyrimidin-4-yl]amino}propyl)-1-(3,4-difluorophenyl)urea]
Cc1cc2cc(CNc3cc(-c4cccc(C)c4C)nc(N)n3)ccc2[nH]1 [Example 364, 6-(2,3-Dimethylphenyl)-4-N-[(2-methyl-1H-indol-5-yl)methyl]pyrimidine-2,4-diamine]
Cc1cccc(-c2cc(NCCCCNC(=O)OC(C)(C)C)nc(N)n2)c1C [Example 370, tert-Butyl N-(4-{[2-amino-6-(2,3-dimethylphenyl)pyrimidin-4-yl]amino}butyl)-carbamate]
Cc1cccc(-c2cc(NCCCCCNC(=O)OC(C)(C)C)nc(N)n2)c1C [Example 371, tert-Butyl N-(5-{[2-amino-6-(2,3-dimethylphenyl)pyrimidin-4-yl]amino}pentyl)-carbamate]
Cc1cccc(-c2cc(NCCCNS(=O)(=O)c3ccc(S(C)(=O)=O)cc3)nc(N)n2)c1C [Example 375, N-(3-{[2-Amino-6-(2,3-dimethylphenyl)pyrimidin-4-yl]amino}propyl)-4-methanesulfonylbenzene-1-sulfonamide]
CC(=O)Nc1ccc(S(=O)(=O)NCCCNc2cc(-c3cccc(C)c3C)nc(N)n2)cc1 [Example 382, N-{4-[(3-{[2-Amino-6-(2,3-dimethylphenyl)pyrimidin-4-yl]amino}propyl)sulfamoyl]-phenyl}acetamide]
COc1ccc(S(=O)(=O)NCCNc2cc(-c3cccc(C)c3C)nc(N)n2)cc1 [Example 385, N-(2-{[2-Amino-6-(2,3-dimethylphenyl)pyrimidin-4-yl]amino}ethyl)-4-methoxybenzene-1-sulfonamide]
Cc1cccc(-c2cc(NCCCNS(=O)(=O)c3cc(Cl)c(Cl)s3)nc(N)n2)c1C [Example 388, N-(3-{[2-Amino-6-(2,3-dimethylphenyl)pyrimidin-4-yl]amino}propyl)-4,5-dichlorothiophene-2-sulfonamide]
Cc1cccc(-c2cc(NCCNc3nc4ccccc4o3)nc(N)n2)c1C [Example 393, 4-N-{2-[(1,3-Benzoxazol-2-yl)amino]ethyl}-6-(2,3-dimethylphenyl)pyrimidine-2,4-diamine]
Cc1cccc(-c2cc(NC(C)CCc3ccccc3)nc(N)n2)c1C (stereo not drawn) [Example 394, 6-(2,3-Dimethylphenyl)-4-N-(4-phenylbutan-2-yl)pyrimidine-2,4-diamine]
Cc1cccc(-c2cc(NCCNc3nc(Br)ns3)nc(N)n2)c1C [Example 398, 4-N-{2-[(3-Bromo-1,2,4-thiadiazol-5-yl)amino]ethyl}-6-(2,3-dimethylphenyl)pyrimidine-2,4-diamine]
Cc1cccc(-c2cc(NCCc3nnc(-c4ccc(F)cc4)o3)nc(N)n2)c1C [Example 400, 6-(2,3-Dimethylphenyl)-4-N-{2-[5-(4-fluorophenyl)-1,3,4-oxadiazol-2-yl]ethyl}pyrimidine-2,4-diamine]
Cc1cccc(-c2cc(NCCNS(=O)(=O)c3ccc(S(C)(=O)=O)cc3)nc(N)n2)c1C [Example 401, N-(2-{[2-Amino-6-(2,3-dimethylphenyl)pyrimidin-4-yl]amino}ethyl)-4-methanesulfonylbenzene-1-sulfonamide]
Cc1nc(CCNc2cc(-c3cccc(Cl)c3C)nc(N)n2)n[nH]1 [Example 412, 6-(3-chloro-2-methylphenyl)-4-N-[2-(5-methyl-1H-1,2,4-triazol-3-yl)ethyl]pyrimidine-2,4-diamine]
Cc1c(Cl)cccc1-c1cc(NCCc2ccc(S(=O)(=O)N(C)C)cc2)nc(N)n1 [Example 414, 4-(2-{[2-amino-6-(3-chloro-2-methylphenyl)pyrimidin-4-yl]amino}ethyl)-N,N-dimethylbenzene-1-sulfonamide]
Cc1cccc(-c2cc(NC3(Cc4ccc(Cl)cc4)CC3)nc(N)n2)c1C [Example 417, 4-N-{1-[(4-Chlorophenyl)methyl]cyclopropyl}-6-(2,3-dimethylphenyl)pyrimidine-2,4-diamine]
Cc1c(F)ccc(-c2cc(NCCc3ccc(S(N)(=O)=O)cc3)nc(N)n2)c1C [Example 425, 4-(2-{[2-amino-6-(4-fluoro-2,3-dimethylphenyl)pyrimidin-4-yl]amino}ethyl)benzene-1-sulfonamide]
Cc1ccc(Cl)cc1-c1cc(NCCc2ccc(S(N)(=O)=O)cc2)nc(N)n1 [Example 427, 4-(2-{[2-amino-6-(5-chloro-2-methylphenyl)pyrimidin-4-yl]amino}ethyl)benzene-1-sulfonamide]
Cc1c(-c2cc(NCCc3ccc(S(C)(=O)=O)cc3)nc(N)n2)ccc(Cl)c1Cl [Example 431, 6-(3,4-dichloro-2-methylphenyl)-4-N-[2-(4-methanesulfonylphenyl)ethyl]pyrimidine-2,4-diamine]
Nc1nc(NCCc2ccc(S(N)(=O)=O)cc2)cc(-c2ccc(F)cc2Cl)n1 [Example 433, 4-(2-{[2-amino-6-(2-chloro-4-fluorophenyl)pyrimidin-4-yl]amino}ethyl)benzene-1-sulfonamide]
Cc1cc(-c2cc(NCCc3ccc(S(N)(=O)=O)cc3)nc(N)n2)ccc1F [Example 435, 4-(2-{[2-amino-6-(4-fluoro-3-methylphenyl)pyrimidin-4-yl]amino}ethyl)benzene-1-sulfonamide]
Cc1c(C#N)cccc1-c1cc(NC2CC2)nc(N)n1 [Example 437, 3-[2-amino-6-(cyclopropylamino)pyrimidin-4-yl]-2-methylbenzonitrile]
C#CCNc1cc(-c2cccc(Cl)c2Cl)nc(N)n1 [Example 438, 6-(2,3-dichlorophenyl)-4-N-(prop-2-yn-1-yl)pyrimidine-2,4-diamine]
Cc1cccc(-c2cc(NCCc3c(C)n[nH]c3C)nc(N)n2)c1C [Example 440, 4-N-[2-(3,5-dimethyl-1H-pyrazol-4-yl)ethyl]-6-(2,3-dimethylphenyl)pyrimidine-2,4-diamine]
Cc1cccc(-c2cc(NCCNc3ccc(Cl)nn3)nc(N)n2)c1C [Example 441, 4-N-{2-[(6-chloropyridazin-3-yl)amino]ethyl}-6-(2,3-dimethylphenyl)pyrimidine-2,4-diamine]
Cc1cccc(-c2cc(NCCNc3cc(C#N)ccn3)nc(N)n2)c1C [Example 442, 2-[(2-{[2-amino-6-(2,3-dimethylphenyl)pyrimidin-4-yl]amino}ethyl)amino]pyridine-4-carbonitrile]
